Legend:
[1] = test system: α-Glucosidase from Saccharomyces cerevisiae; experiment: Inhibitory kinetic analysis; type: biochemical; conditions: Lineweaver-Burk plots
[2] = test system: α-Glucosidase from Saccharomyces cerevisiae; experiment: In vitro inhibition assay for α-glucosidase activity; type: biochemical
[3] = Precipitation of DMSO-dissolved compounds upon mixing in phosphate buffer; type: physicochemical
[4] = printed in the column IC50 against α-amylase
[5] = printed in the column IC50 against α-glucosidase

| SMILES | inhibition pattern against α-glucosidase [1] | Precipitated at (in vial) [3, 4] | Precipitated at (in vial) [3, 5] | also measured |
| --- | --- | --- | --- | --- |
| O=c1c(O)c(-c2cc(O)c(O)c(O)c2)oc2cc(O)cc(O)c12 [Myricetin] | mixed inhibition patterns | – | – | – |
| O=c1cc(-c2ccc(O)cc2)oc2cc(O)cc(O)c12 [Apigenin] | – | Precipitated at 1000 μM (in vial) | Precipitated at 1000 μM (in vial) | inhibitory activity on α-glucosidase ([2]; at ≤1000 μM): no inhibitory activity |
| O=c1cc(-c2ccccc2)oc2cc(O)cc(O)c12 [Chrysin] | – | Precipitated at 400 μM (in vial) | Precipitated at 400 μM (in vial) | inhibitory activity on α-glucosidase ([2]; at ≤400 μM): no inhibitory activity |
| O=c1cc(-c2ccc(O)c(O)c2)oc2cc(O)cc(O)c12 [Luteolin] | mixed inhibition patterns | – | – | – |
| O=c1c(O)c(-c2ccc(O)cc2)oc2cc(O)cc(O)c12 [Kaempferol] | – | Precipitated at 80 μM (in vial) | Precipitated at 80 μM (in vial) | inhibitory activity on α-glucosidase ([2]; at ≤80 μM): no inhibitory activity |
| O=c1c(O)c(-c2ccc(O)c(O)c2)oc2cc(O)cc(O)c12 [Quercetin] | mixed inhibition patterns | – | – | – |
| C[C@H]1O[C@H](O[C@H]2[C@H](O)[C@@H](O)[C@@H](O[C@H]3[C@H](O)[C@@H](O)C(O)O[C@@H]3CO)O[C@@H]2CO)[C@H](O)[C@@H](O)[C@@H]1N[C@H]1C=C(CO)[C@@H](O)[C@H](O)[C@H]1O (stereo partly shown) [Acarbose, reference compound] | competitive inhibition pattern | – | – | – |
